These results are taken from paper PMC9705834, “Mitochondrial Targeting Domain Homologs Induce Necrotic Cell Death Via Mitochondrial and Endoplasmic Reticulum Disruption” (Journal of Microbiology and Biotechnology, 2021).

The conditions of data set [1]: cited from earlier work. From the text:
Within few minutes after the treatment with the MTD peptide, intracellular calcium concentration increases, and extracellular calcium penetrates through the mitochondrial permeability transition (mPT) pore. With the formation of blebs, the calcium concentration decreases and mitochondrial reactive oxidative species (ROS) begin to increase. MTDs also induce mitochondrial swelling, fragmentation, and endopla ... || Bnip1 MTD-like motif (B1MLM), derived from another BH3-only protein, Bnip1, also induces cell death in the same manner. Bnip1 interacts with […] Bcl-2 family proteins and the adenoviral antiapoptotic protein, E1B 19 kDa. The BH3 domain of Bnip1 is closely involved in apoptosis and mitochondrial fission carried out by Drp1 [14]. B1MLM has a similar arrangement of leucine residues as that of MTD. […] Similar to MTD, B1MLM induces a sharp rise in ca ... || MTD and B1MLM peptides induce necrotic cell death when associated with R8. R8 is a well-known cell penetrating motif. […] To evaluate the cytotoxicity of MTD homologs, we synthesized these peptides and fused R8 at the N-terminus.

Another data set concerns HeLa cells. Description: MTS assay of cell viability after peptide treatment. To be noted: HeLa cells at 90% confluency, peptide in phenol red-free DMEM for 1 h, absorbance 450 nm. Type of data set: cell-based. As to the method:
HeLa cells were purchased from the Korean Cell Line Bank (Korea) and cultured in Dulbecco’s modified Eagle’s medium (DMEM) containing 10% fetal bovine serum and 1× penicillin-streptomycin (100 IU/ml and 100 μg/ml, Gibco-Thermo Fisher, USA) at 37°C in a humidified 5% CO2 atmosphere.
HeLa cells were cultured in 96-well plates to 90% confluency and treated with peptides mixed in phenol red-free DMEM for 1 h. After incubation, MTS solution (20 μl, Promega, USA) was added and the absorbance of each well was measured at 450 nm.
Fig. 1 Mitochondrial targeting domain (MTD) homologs induce necrotic cell death as in MTD. A. (Left panel) There are several mitochondrial targeting domain (MTD) homologs in human genes. They were searched by protein basic local alignment search tool (BLAST) on National Center for Biotechnology Information (NCBI) and sorted according to percent identity with MTD. Each amino acid was colored according to the ClustalX color scheme (hydrophobic, blue; positive charge, red; negative charge, magenta; polar, green; glycine, orange; proline, yellow; aromatic, cyan; cysteine, pink). (Right panel) The cytotoxicity of mitochondrial targeting domain (MTD) homologs is determined by its amino acid sequence. MTD homologs were grouped according to their cytotoxicity, then sorted according to percent identity with MTD. Each amino acid was colored according to the ClustalX color scheme (hydrophobic, blue; positive charge, red; negative charge, magenta; polar, green; glycine, orange; proline, yellow; aromatic, cyan; cysteine, pink). B. Cell viabilities were determined by MTS assay 1 h after treating HeLa cells with MTD homologs fused with octa-arginine (R8). HeLa cells treated with R8:M-LIPRIN, R8:MST3GAL3, R8:M-TRRAD, and R8:M-SDAD1(left panel). HeLa cells treated with eM-GAL3, R8:MGAL3, and R8:M-ST13 (right panel). C, HeLa cells treated with R8:M-SDAD1 (5 μM), R8:M-TRRAD (20 μM), and R8:M-ST3GAL3 (40 μM), then observed for 10 min using differential interference contrast microscopy. D, HeLa cells were treated with R8:M-SDAD1 (10 μM), R8:M-TRRAD (20 μM), and R8:M-ST3GAL3 (40 μM), with and without DIDS (200 μM); after 1 h, cell viability was determined by MTS assay. […]
(In general: Formazan colour is commonly taken as a measure of viable cells.)

For data set [2] the following is noted: previous study; cited from earlier work.

Regarding “KLLNLISKLF [MTD, mitochondrial targeting domain of Noxa, as a peptide without R8]”, the “cell killing activity of MTD peptide without R8” value in data set [1] (previous study) is on record as “did not show any cell killing activity”. Consider “KLNFRQKLLNLISKLFCSGT [eMTD, extended MTD: MTD with its flanking region]”, for which the necrotic cell death result in data set [1] (MTD with its flanking region) is listed as “strongly induces necrotic cell death”. For the sequence “LLQYNHRVKKLNEISKLGISGDIDLTSASYTMI [eM-GAL3, M-GAL3 with a flanking region similar to that of eMTD, without R8]”, in the data set with HeLa cells, the “cytotoxicity / cell viability as the concentration increased (Fig. 1B)” value was “hardly altered cell viability”. For the sequence “RRRRRRRREAKLLELTSKLRKA [R8:M-LIPRIN, MTD homolog found in LIPRIN, fused with R8 at the N-terminus]”, the “cytotoxicity / cell viability as the concentration increased (Fig. 1B)” value in the data set on HeLa cells is “hardly altered cell viability”. In the case of RRRRRRRRKLLNLISKLF [R8:MTD], in data set [2], the “disruption of ER and mitochondria” value is “induced the disruption of ER and mitochondria”.

Take “RRRRRRRRNPKVMNLISKLSAK [R8:M-ST13, MTD homolog found in ST13, fused with R8 at the N-terminus]”: the “cytotoxicity / cell viability as the concentration increased (Fig. 1B)” value with HeLa cells is listed as “hardly altered cell viability”.

With “RRRRRRRRVKKLNEISKLGISG [R8:M-GAL3, MTD homolog found in GAL3, fused with R8 at the N-terminus]”, the “cytotoxicity / cell viability as the concentration increased (Fig. 1B)” value with HeLa cells is given as “hardly altered cell viability”.
